Key:
Assay type in all cases: cell-based
Actinomyces naeslundii = test: Metabolic activity, Biolog phenotype microarray; details: control without dipeptide = 1
Method: (§1) The extent of metabolic activity of the tested bacteria in the presence of the above-mentioned dipeptides after 24 hours and 48 hours was investigated through a high throughput phenotype microarray system (PM) for microbial cells (Biolog Inc.). Each PM can contain up to 95 different biochemical compounds (e.g. di-peptides) that may act as substrates for bacteria as well as one negative control, not containing the substrates. Microarray plates were used in which the different wells of each plate were pre-loaded (by the manufacturer, Biolog Inc.) with different di-peptides to be tested. Each bacterial species was tested using a separate microarray plate. Thus, a single bacterial species was tested with a variety of dipeptides on each particular plate. The microarrays are based on redox technology, using cell respiration as a universal reporter. Active cell respiration results in the reduction of a tetrazolium dye and in the formation of a strong color—for example, when using the tetrazolium dye “Biolog Redox Dye Mix D”, the color changes from transparent/colourless to purple when the dye is reduced. The observation of this color change indicates which of the substrates improve the metabolic activity and health of the cells. Each bacterial species was collected from blood agar plates (incubated for 48 hours anaerobically at 37° C.) and transferred to an IF-0 Base inoculation fluid (Biolog Inc.), which is a nutritionally poor medium. The resulting cell suspension was adjusted to a transmittance of 42% (relative to the transmittance of the base inoculation fluid with no bacterial species present) at 492 nm using a BioRad SmartSpec 3000 Photometer (the adjustment being effected by adding either further inoculation fluid or further bacteria until the transmittance of 42% was achieved). A 1:5 dilution of this suspension was prepared by mixing 3 mL of the 42% transmittance cell suspension with 15 mL of an inoculation fluid (which inoculation fluid was formed by mixing 11.6 mL sterile water, 62.5 mL IF-0 base inoculation fluid and 0.9 mL of the tetrazolium dye “Biolog Redox Dye mix D”), resulting in a final cell density which was equal to 85% transmittance using a BioRad SmartSpec 3000 Photometer. 680 μL of a 2M sodium succinate/200 μM ferric citrate solution in distilled water was added to 68 mL of the 85% transmittance cell suspension and 100 μL of this mixture was added to each well (the various di-peptides being already present in powder form in the relevant wells of the plate as obtained from the supplier i.e. Biolog Inc.). All plates were incubated in an anaerobic atmosphere at 37° C. Color changes were measured spectrophotometrically at 492 nm (Thermo Scientific Multiskan Ascent) at 24 hrs and 48 hrs using the same plate at both time points. […] After 24 hrs and 48 hrs under continuous shaking in a Multiscan microplate reader, the optical density (OD) of the synthetic medium at 24 hours and 48 hours was measured (using the microplate reader) at a wavelength of 492 nm for each combination of bacterium/dipeptide, and for each of their respective controls (i.e. which contained the particular bacterium but no dipeptide). […] The experiment was carried out three times for each combination of bacterium with dipeptide, with each repeat being carried out on a different day (thus providing three biological replicas). The controls were also carried out three times, as above. The values shown are the average (mean) of the three single values obtained (as detailed above) for each combination of bacterium with dipeptide, at 24 hrs and at 48 hrs.

Actinomyces viscosus = test: Metabolic activity, Biolog phenotype microarray; details: control without dipeptide = 1
Method: as §1

[1] = tested on: Aggregatibacter actinomycetemcomitans; test: Metabolic activity, Biolog phenotype microarray; details: control without dipeptide = 1
Method: as §1

Capnocytophaga sputigena = test: Metabolic activity, Biolog phenotype microarray; details: control without dipeptide = 1
Method: as §1

Fusobacterium nucleatum = test: Metabolic activity, Biolog phenotype microarray; details: control without dipeptide = 1
Method: as §1

Porphyromonas gingivalis = test: Metabolic activity, Biolog phenotype microarray; details: control without dipeptide = 1
Method: as §1

Prevotella intermedia = test: Metabolic activity, Biolog phenotype microarray; details: control without dipeptide = 1
Method: as §1

Streptococcus gordonii = test: Metabolic activity, Biolog phenotype microarray; details: control without dipeptide = 1
Method: as §1

Streptococcus mitis = test: Metabolic activity, Biolog phenotype microarray; details: control without dipeptide = 1
Method: as §1

Streptococcus mutans = test: Metabolic activity, Biolog phenotype microarray; details: control without dipeptide = 1
Method: as §1

Streptococcus salivarius = test: Metabolic activity, Biolog phenotype microarray; details: control without dipeptide = 1
Method: as §1

Streptococcus sanguinis = test: Metabolic activity, Biolog phenotype microarray; details: control without dipeptide = 1
Method: as §1

Streptococcus sobrinus = test: Metabolic activity, Biolog phenotype microarray; details: control without dipeptide = 1
Method: as §1

Tannerella forsythia = test: Metabolic activity, Biolog phenotype microarray; details: control without dipeptide = 1
Method: as §1

Veillonella parvula = test: Metabolic activity, Biolog phenotype microarray; details: control without dipeptide = 1
Method: as §1

[2] = tested on: beneficial oral bacteria and pathogenic oral bacteria; test: Metabolic activity, whole panel: prebiotic effect; details: threshold value of 2
Method: Substrates that were able to increase the metabolic activity of at least one of the above beneficial bacteria while not or only minimally increasing the growth of the pathogenic bacteria are considered to be prebiotic substrates. The extent of metabolic activity of the tested bacteria in the presence of the above-mentioned dipeptides after 24 hours and 48 hours was investigated through a high throughput phenotype microarray system (PM) for microbial cells (Biolog Inc.). Each PM can contain up to 95 different biochemical compounds (e.g. di-peptides) that may act as substrates for bacteria as well as one negative control, not containing the substrates. Microarray plates were used in which the different wells of each plate were pre-loaded (by the manufacturer, Biolog Inc.) with different di-peptides to be tested. Each bacterial species was tested using a separate microarray plate. Thus, a single bacterial species was tested with a variety of dipeptides on each particular plate. The microarrays are based on redox technology, using cell respiration as a universal reporter. Active cell respiration results in the reduction of a tetrazolium dye and in the formation of a strong color—for example, when using the tetrazolium dye “Biolog Redox Dye Mix D”, the color changes from transparent/colourless to purple when the dye is reduced. The observation of this color change indicates which of the substrates improve the metabolic activity and health of the cells. Each bacterial species was collected from blood agar plates (incubated for 48 hours anaerobically at 37° C.) and transferred to an IF-0 Base inoculation fluid (Biolog Inc.), which is a nutritionally poor medium. The resulting cell suspension was adjusted to a transmittance of 42% (relative to the transmittance of the base inoculation fluid with no bacterial species present) at 492 nm using a BioRad SmartSpec 3000 Photometer (the adjustment being effected by adding either further inoculation fluid or further bacteria until the transmittance of 42% was achieved). A 1:5 dilution of this suspension was prepared by mixing 3 mL of the 42% transmittance cell suspension with 15 mL of an inoculation fluid (which inoculation fluid was formed by mixing 11.6 mL sterile water, 62.5 mL IF-0 base inoculation fluid and 0.9 mL of the tetrazolium dye “Biolog Redox Dye mix D”), resulting in a final cell density which was equal to 85% transmittance using a BioRad SmartSpec 3000 Photometer. 680 μL of a 2M sodium succinate/200 μM ferric citrate solution in distilled water was added to 68 mL of the 85% transmittance cell suspension and 100 μL of this mixture was added to each well (the various di-peptides being already present in powder form in the relevant wells of the plate as obtained from the supplier i.e. Biolog Inc.). All plates were incubated in an anaerobic atmosphere at 37° C. Color changes were measured spectrophotometrically at 492 nm (Thermo Scientific Multiskan Ascent) at 24 hrs and 48 hrs using the same plate at both time points. […] After 24 hrs and 48 hrs under continuous shaking in a Multiscan microplate reader, the optical density (OD) of the synthetic medium at 24 hours and 48 hours was measured (using the microplate reader) at a wavelength of 492 nm for each combination of bacterium/dipeptide, and for each of their respective controls (i.e. which contained the particular bacterium but no dipeptide). […] The experiment was carried out three times for each combination of bacterium with dipeptide, with each repeat being carried out on a different day (thus providing three biological replicas). The controls were also carried out three times, as above. The values shown are the average (mean) of the three single values obtained (as detailed above) for each combination of bacterium with dipeptide, at 24 hrs and at 48 hrs. […] This value was selected in order to exclude low-stimulating metabolites and avoid false positive results.

Row | Substance | metabolic activity: OD 492 nm divided by OD of control (Actinomyces naeslundii; 24 hrs) | metabolic activity: OD 492 nm divided by OD of control (Actinomyces naeslundii; 48 hrs) | metabolic activity: OD 492 nm divided by OD of control (Actinomyces viscosus; 24 hrs) | metabolic activity: OD 492 nm divided by OD of control (Actinomyces viscosus; 48 hrs) | metabolic activity: OD 492 nm divided by OD of control ([1]; 24 hrs) | metabolic activity: OD 492 nm divided by OD of control ([1]; 48 hrs) | metabolic activity: OD 492 nm divided by OD of control (Capnocytophaga sputigena; 24 hrs) | metabolic activity: OD 492 nm divided by OD of control (Capnocytophaga sputigena; 48 hrs) | metabolic activity: OD 492 nm divided by OD of control (Fusobacterium nucleatum; 24 hrs) | metabolic activity: OD 492 nm divided by OD of control (Fusobacterium nucleatum; 48 hrs) | metabolic activity: OD 492 nm divided by OD of control (Porphyromonas gingivalis; 24 hrs) | metabolic activity: OD 492 nm divided by OD of control (Porphyromonas gingivalis; 48 hrs) | metabolic activity: OD 492 nm divided by OD of control (Prevotella intermedia; 24 hrs) | metabolic activity: OD 492 nm divided by OD of control (Prevotella intermedia; 48 hrs) | metabolic activity: OD 492 nm divided by OD of control (Streptococcus gordonii; 24 hrs) | metabolic activity: OD 492 nm divided by OD of control (Streptococcus gordonii; 48 hrs) | metabolic activity: OD 492 nm divided by OD of control (Streptococcus mitis; 24 hrs) | metabolic activity: OD 492 nm divided by OD of control (Streptococcus mitis; 48 hrs) | metabolic activity: OD 492 nm divided by OD of control (Streptococcus mutans; 24 hrs) | metabolic activity: OD 492 nm divided by OD of control (Streptococcus mutans; 48 hrs) | further results
1 | Glu-Trp | 1.1008 | 1.2040 | 1.5845 | 2.1016 | 0.9494 | 0.8665 | 1.7818 | 1.4150 | 0.9011 | 0.8364 | 0.9385 | 0.8770 | 1.0170 | 0.9148 | 1.1537 | 1.4320 | 0.9457 | 0.9396 | 0.9492 | 1.0170 | metabolic activity: OD 492 nm divided by OD of control (Streptococcus salivarius; 24 hrs): 1.0068; metabolic activity: OD 492 nm divided by OD of control (Streptococcus salivarius; 48 hrs): 0.9525; metabolic activity: OD 492 nm divided by OD of control (Streptococcus sanguinis; 24 hrs): 0.9983; metabolic activity: OD 492 nm divided by OD of control (Streptococcus sanguinis; 48 hrs): 1.0208; metabolic activity: OD 492 nm divided by OD of control (Streptococcus sobrinus; 24 hrs): 1.0018; metabolic activity: OD 492 nm divided by OD of control (Streptococcus sobrinus; 48 hrs): 0.9874; metabolic activity: OD 492 nm divided by OD of control (Tannerella forsythia; 24 hrs): 0.9320; metabolic activity: OD 492 nm divided by OD of control (Tannerella forsythia; 48 hrs): 0.9303; metabolic activity: OD 492 nm divided by OD of control (Veillonella parvula; 24 hrs): 0.8378; metabolic activity: OD 492 nm divided by OD of control (Veillonella parvula; 48 hrs): 0.7873; prebiotic effects (metabolic activity) ([2]; 48 hrs): exhibited prebiotic effects
2 | Ser-Gln | 1.2183 | 1.5857 | 1.6173 | 2.0308 | 0.9996 | 1.1574 | 2.2409 | 1.6963 | 1.2502 | 1.6185 | 1.1453 | 1.4999 | 1.2382 | 1.3661 | 0.9754 | 1.4584 | 1.0595 | 1.5980 | 1.2511 | 1.7642 | metabolic activity: OD 492 nm divided by OD of control (Streptococcus salivarius; 24 hrs): 1.1847; metabolic activity: OD 492 nm divided by OD of control (Streptococcus salivarius; 48 hrs): 1.6185; metabolic activity: OD 492 nm divided by OD of control (Streptococcus sanguinis; 24 hrs): 1.1901; metabolic activity: OD 492 nm divided by OD of control (Streptococcus sanguinis; 48 hrs): 1.6298; metabolic activity: OD 492 nm divided by OD of control (Streptococcus sobrinus; 24 hrs): 1.1504; metabolic activity: OD 492 nm divided by OD of control (Streptococcus sobrinus; 48 hrs): 1.6280; metabolic activity: OD 492 nm divided by OD of control (Tannerella forsythia; 24 hrs): 1.1929; metabolic activity: OD 492 nm divided by OD of control (Tannerella forsythia; 48 hrs): 1.4647; metabolic activity: OD 492 nm divided by OD of control (Veillonella parvula; 24 hrs): 0.8812; metabolic activity: OD 492 nm divided by OD of control (Veillonella parvula; 48 hrs): 0.8706; prebiotic effects (metabolic activity) ([2]; 24 hrs): exhibited prebiotic effects; prebiotic effects (metabolic activity) ([2]; 48 hrs): exhibited prebiotic effects

Source: US10159640B2, “Prebiotic oral care compositions containing amino acids” (COLGATE-PALMOLIVE COMPANY, priority 2013, dated 2018)
